What all share (format): cell-based
For one test, the system named is Lovo cells (G13D). The test is described as follows: Cell viability assay (CellTiter-Glo), Lovo cells. To be noted: Homo sapiens, 72 h, read-out: Inhibition of Cancerous Cells IC50 Lovo (G13D). In a few lines: (§1)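 Cells were plated in their growth medium (RPMI 1640 for H358 and SW48, DMEM for Lovo and SW480) with 2.5% FBS, then exposed to compound or DMSO for 3 days at 37 °C, 5% CO2. Viability was read as CellTiter-Glo luminescence after 10 min shaking.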
For orientation: Cellular ATP, detected with luciferase, serves as a proxy for viable cell number.

A further test has as its system SW480 cells (G12V). Briefly: Cell viability assay (CellTiter-Glo), SW480 cells. As to conditions: Homo sapiens, read-out: Inhibition of Cancerous Cells IC50 SW480 (G12V). The procedure, abridged:
as §1

The next test deals with SW48 cells (wt). Briefly: Cell viability assay (CellTiter-Glo), SW48 cells. To be noted: Homo sapiens, read-out: Inhibition of Cancerous Cells IC50 SW48 (wt). In a few lines:
as §1

In a further test the test system is H23 cells. The test is described as follows: Cell viability assay (CellTiter-Glo), H23 cells. To be noted: Homo sapiens, NCI-H23, 72 h, read-out: Inhibition of Cancerous Cells IC50 H23. The protocol: H358, H23, SW48, and AsPC-1 cells were cultured in RPMI 1640 media supplemented with 10% fetal bovine serum, streptomycin, and penicillin. Lovo and SW480 cells were cultured in DMEM media supplemented with 10% fetal bovine serum, streptomycin, and penicillin. The cell lines were plated in their respective medium supplemented with 2.5% fetal bovine serum, streptomycin, and penicillin. All cell lines were plated in white walled 96-well plates at 2,000 cells/well or 384-well plates at 500 cells/well, except Lovo, which were plated at 4,000 or 1,000 cells/well, respectively. The cells were incubated in DMSO (control) or a compound for 3 days at 37° C. under 5% CO2. A CELLTITER-GLO® reagent (100 μL) was then added to each well. After a 10 min incubation with shaking, luminescence was measured using an ENVISION® multimode plate reader.

A further test relates to H358 cells (G12C). The test is described as follows: Cell viability assay (CellTiter-Glo), H358 cells. To be noted: Homo sapiens, NCI-H358, 72 h, read-out: Inhibition of Cancerous Cells IC50 H358 (G12C). The procedure, abridged:
as §1

A further test concerns Molm-13 cells. The test is described as follows: Inhibition of Molm-13 cells. As to conditions: Homo sapiens; for inhibition at 1 µM: compound 1 μM, read-out: Inhibition of Molm-13 Cells, percentage of inhibition at 1 μM; for inhibition at 10 µM: compound 10 μM, read-out: Inhibition of Molm-13 Cells, percentage of inhibition at 10 μM.
Where [1] appears, read: Lovo cells, 3 days incubation, CellTiter-Glo luminescence.
Where [2] appears, read: 72 h, SW480 cells, 3 days incubation, CellTiter-Glo luminescence.
The mark [3] stands for this setting: 72 h, SW48 cells, 3 days incubation, CellTiter-Glo luminescence.
Where [4] appears, read: H23 cells, 3 days incubation, CellTiter-Glo luminescence.
[5] abbreviates: H358 cells, 3 days incubation, CellTiter-Glo luminescence.

The term IC50 denotes the point on the concentration scale where inhibition reaches its midpoint. For orientation: inhibition means the drop in the measured response relative to a control, in per cent.

Read-outs that look alike come from different tables or passages of the source.

With `CCOc1cc(C(C)(C)C)ccc1C1=N[C@@](C)(c2ccc(Cl)cc2)[C@@](C)(c2ccc(Cl)cc2)N1C(=O)N1CCN(CCC(=O)NCCCCCOc2cc3nc(C)nc(N[C@H](C)c4cccc(Br)c4)c3cc2OC)CC1` [Compound C8, N-(5-((4-(((R)-1-(3-Bromophenyl)ethyl)amino)-6-methoxy-2-methylquinazolin-7-yl)oxy)pentyl)-3-(4-((4S,5R)-2-(4-(tert-butyl)-2-ethoxyphenyl)-4,5-bis(4-chlorophenyl)-4,5-dimethyl-4,5-dihydro-1H-imidazole-1-carbonyl)piperazin-1-yl)propanamide], the IC50 was 540 nM in the test on Lovo cells (G13D) (setting [1]); 1400 nM in the test on SW480 cells (G12V) (setting [2]); 1100 nM with SW48 cells (wt) (setting [3]); over 10000 nM in the test with H23 cells (setting [4]); 2800 nM in the test with H358 cells (G12C) (setting [5]).
As for `CCOc1cc(C(C)(C)C)ccc1C1=N[C@@](C)(c2ccc(Cl)cc2)[C@@](C)(c2ccc(Cl)cc2)N1C(=O)N1CCN(CCC(=O)NCCCCCCCCCOc2cc3nc(C)nc(N[C@H](C)c4cccc(Br)c4)c3cc2OC)CC1` [Compound C7, N-(9-((4-(((R)-1-(3-Bromophenyl)ethyl)amino)-6-methoxy-2-methylquinazolin-7-yl)oxy)nonyl)-3-(4-((4S,5R)-2-(4-(tert-butyl)-2-ethoxyphenyl)-4,5-bis(4-chlorophenyl)-4,5-dimethyl-4,5-dihydro-1H-imidazole-1-carbonyl)piperazin-1-yl)propanamide], the half-inhibitory concentration (IC50) is 6600 nM in the test on Lovo cells (G13D) (setting [1]); over 10000 nM in the test with SW480 cells (G12V) (setting [2]); over 10000 nM in the test on SW48 cells (wt) (setting [3]); over 10000 nM with H23 cells (setting [4]); over 10000 nM with H358 cells (G12C) (setting [5]).
Consider `COc1cc2c(N[C@H](C)c3cccc(Br)c3)nc(C)nc2cc1OCCCN1CCC(c2cc(F)cc3c2CN(C2CCC(=O)NC2=O)C3=O)CC1` (stereo partly drawn) [Compound A10, 3-(4-(1-(3-((4-(((R)-1-(3-Bromophenyl)ethyl)amino)-6-methoxy-2-methyl-quinazolin-7-yl)oxy)propyl)piperidin-4-yl)-6-fluoro-1-oxoisoindolin-2-yl)piperidine-2,6-dione], for which, in the test on Molm-13 cells, the inhibition at 1 µM came to 22% and the inhibition at 10 µM was 99%.
As for `COc1cc2c(N[C@H](C)c3cccc(Br)c3)nc(C)nc2cc1OCCCCCCCN1CCC(c2cc(F)cc3c2CN(C2CCC(=O)NC2=O)C3=O)CC1` (stereo partly drawn) [Compound A1, 3-(4-(1-(7-((4-(((R)-1-(3-bromophenyl)ethyl)amino)-6-methoxy-2-methylquinazolin-7-yl)oxy)heptyl)piperidin-4-yl)-6-fluoro-1-oxoisoindolin-2-yl)piperidine-2,6-dione], the IC50 is 940 nM with Lovo cells (G13D) (LoVo); 580 nM in the test on SW480 cells (G12V) (SW480, 72 h); 700 nM with SW48 cells (wt) (SW48, 72 h); 1200 nM in the test with H23 cells; 2800 nM with H358 cells (G12C).
As to `COc1cc2c(N[C@H](C)c3cccc(Br)c3)nc(C)nc2cc1OCCCCCCCNCc1ccc(OCc2scc3c2CN(C2CCC(=O)NC2=O)C3=O)cc1` (stereo partly drawn) [Compound A41, 3-(1-((4-(((7-((4-(((R)-1-(3-Bromophenyl)ethyl)amino)-6-methoxy-2-methyl-quinazolin-7-yl)oxy)heptyl)amino)methyl)phenoxy)methyl)-4-oxo-4H-thieno[3,4-c]pyrrol-5(6H)-yl)piperidine-2,6-dione], the half-maximal inhibitory concentration (IC50) in the test on H23 cells (setting [4]) amounted to 1300 nM; in the test on H358 cells (G12C) (setting [5]) it was 1500 nM.
Regarding `COc1cc2c(N[C@H](C)c3cccs3)nc(C)nc2cc1OCCCCCCCCC(=O)N[C@H](C(=O)N1C[C@H](O)C[C@H]1C(=O)NCc1ccc(-c2scnc2C)cc1)C(C)(C)C` [Compound D5, (2S,4R)-4-Hydroxy-1-((S)-2-(9-((6-methoxy-2-methyl-4-(((R)-1-(thiophen-2-yl)ethyl)amino)quinazolin-7-yl)oxy)nonanamido)-3,3-dimethylbutanoyl)-N-(4-(4-methylthiazol-5-yl)benzyl)pyrrolidine-2-carboxamide], in the test with Molm-13 cells, the inhibition at 1 µM is 22% and the inhibition at 10 µM was determined as 99%.
Regarding `COc1cc2c(N[C@H](C)c3cccc(Br)c3)nc(C)nc2cc1OC1CCN(CCCCN2CCC(c3cc(F)cc4c3CN(C3CCC(=O)NC3=O)C4=O)CC2)CC1` (stereo partly drawn) [Compound A18, 3-(4-(1-(4-(4-((4-(((R)-1-(3-Bromophenyl)ethyl)amino)-6-methoxy-2-methyl-quinazolin-7-yl)oxy)piperidin-1-yl)butyl)piperidin-4-yl)-6-fluoro-1-oxoisoindolin-2-yl)-piperidine-2,6-dione], the IC50 in the test with H23 cells (setting [4]) was determined as 2600 nM; with H358 cells (G12C) (setting [5]), 3000 nM.
`COc1cc2nc(C)nc(N[C@H](C)c3cccc(Br)c3)c2cc1OC` [drawing 284, reference compound]: the IC50 is 2200 nM in the test on Lovo cells (G13D) (setting [1]); 2800 nM with SW480 cells (G12V) (setting [2]); 3600 nM with SW48 cells (wt) (setting [3]); 4800 nM with H23 cells (setting [4]); 4100 nM in the test on H358 cells (G12C) (setting [5]).
For `COc1cc2c(N[C@H](C)c3cccc(Br)c3)nc(C)nc2cc1OCCCCCCCN1CCC(c2cc3c(cc2F)C(=O)N(C2CCC(=O)NC2=O)C3)CC1` (stereo partly drawn) [Compound A22, 3-(5-(1-(7-((4-(((R)-1-(3-bromophenyl)ethyl)amino)-6-methoxy-2-methylquinazolin-7-yl)oxy)heptyl)piperidin-4-yl)-6-fluoro-1-oxoisoindolin-2-yl)piperidine-2,6-dione], the IC50 stood at 900 nM in the test on H23 cells (setting [4]) and 790 nM with H358 cells (G12C) (setting [5]).
On the same counts, the results for `CNCc1ccccc1-c1csc([C@@H](C)Nc2nc(C)nc3cc(OC)c(OC)cc23)c1` [reference compound] are 1500 nM and 2100 nM.
On the same counts, the results for `CNCc1ccccc1-c1csc([C@H](C)Nc2nc(C)nc3cc(OC)c(OC)cc23)c1` [reference compound] are 2300 nM and 2400 nM.
On to `CNCc1ccccc1-c1csc([C@H](C)Nc2nc(C)nc3cc(OCCCCCCCCC(=O)N[C@H](C(=O)N4C[C@H](O)C[C@H]4C(=O)NCc4ccc(-c5scnc5C)cc4)C(C)(C)C)c(OC)cc23)c1` [Compound D10, (2S,4R)-4-hydroxy-1-((S)-2-(9-((6-methoxy-2-methyl-4-(((S)-1-(4-(2-((methylamino)methyl)phenyl)thiophen-2-yl)ethyl)amino)quinazolin-7-yl)oxy)nonanamido)-3,3-dimethylbutanoyl)-N-(4-(4-methylthiazol-5-yl)benzyl)pyrrolidine-2-carboxamide], for which the IC50 in the test with H23 cells (setting [4]) stood at 930 nM; in the test on H358 cells (G12C) (setting [5]), 750 nM.
As to `CNCc1ccccc1-c1csc([C@@H](C)Nc2nc(C)nc3cc(OCCCCCCCCC(=O)N[C@H](C(=O)N4C[C@H](O)C[C@H]4C(=O)NCc4ccc(-c5scnc5C)cc4)C(C)(C)C)c(OC)cc23)c1` [Compound D9, (2S,4R)-4-hydroxy-1-((S)-2-(9-((6-methoxy-2-methyl-4-(((R)-1-(4-(2-((methylamino)methyl)phenyl)thiophen-2-yl)ethyl)amino)quinazolin-7-yl)oxy)nonanamido)-3,3-dimethylbutanoyl)-N-(4-(4-methylthiazol-5-yl)benzyl)pyrrolidine-2-carboxamide], the figures for the half-inhibitory concentration (IC50) in the test on H23 cells (setting [4]) and in the test with H358 cells (G12C) (setting [5]) were 1000 nM and 970 nM, respectively.
For the compound `COc1cc2nc(C)nc(N[C@H](C)c3cccc(Br)c3)c2cc1OC` [drawing 287], in the test on Molm-13 cells, the inhibition at 1 µM turned out to be 17% and the inhibition at 10 µM came to 91%.
As for `COc1cc2c(N[C@H](C)c3cccc(Br)c3)nc(C)nc2cc1OCCOCCOCCOCCNc1cccc2c1C(=O)N(C1CCC(=O)NC1=O)C2=O` (stereo partly drawn) [Compound A4, 4-((2-(2-(2-(2-((4-(((R)-1-(3-bromophenyl)ethyl)amino)-6-methoxy-2-methylquinazolin-7-yl)oxy)ethoxy)ethoxy)ethoxy)ethyl)amino)-2-(2,6-dioxopiperidin-3-yl)isoindoline-1,3-dione], the results for the half-inhibitory concentration (IC50) with H23 cells (setting [4]) and with H358 cells (G12C) (setting [5]) were 9000 nM and 7200 nM, respectively.
